We go through five compounds from US7304050B2, “Antibacterial agents” (Pfizer Inc., priority 2003, dated 2007).

Assay [1] concerns E. coli transcription and translation (TnT). It is filed as biochemical.
The subject of another assay is E. coli Tol C. Nature of the assay: Antibacterial assay (Test A), microtitration MIC, Gram negative. The assay is classed as cell-based. The conditions noted are these: Escherichia coli, read-out: Minimum Inhibitory Concentrations E. coli Tol C. As to the method: (§1) The compounds of the present invention were tested against an assortment of Gram-negative and Gram-positive organisms using standard microtitration techniques (Cohen et. al., Antimicrob., 1985;28:766;Heifetz, et. al., Antimicrob., 1974;6: 124).

Another assay deals with M. catarrhalis BC3534. The assay is described as above. It is filed as cell-based. The settings on record: Moraxella catarrhalis; Gram Negative Bacteria; strain BC3534; read-out: Minimum Inhibitory Concentrations M. catarrhalis BC3534. As for the experimental part:
as §1

The subject of another assay is H. influenzae HI3542. Described as above. The assay is classed as cell-based. The conditions noted are these: Haemophilus influenzae; Gram Negative Bacteria; strain HI3542; read-out: Minimum Inhibitory Concentrations H. influenzae HI3542. As to the method: as §1
Another assay relates to S. aureus UC-76. In words: Antibacterial assay (Test A), microtitration MIC, Gram positive. It is filed as cell-based. The settings on record: Staphylococcus aureus, UC76; Gram Positive Bacteria; strain UC-76; read-out: Minimum Inhibitory Concentrations S. aureus UC-76. As for the experimental part:
as §1

The test system of a further assay is E. faecalis MGH-2. Described as above. The assay is classed as cell-based. The settings on record: Enterococcus faecalis, MGH2; Gram Positive Bacteria; strain MGH-2; read-out: Minimum Inhibitory Concentrations E. faecalis MGH-2. As for the experimental part:
as §1

The test system of the next assay is S pyogenes C203. Described as above. The assay is classed as cell-based. The conditions noted are these: Gram Positive Bacteria; strain C203; read-out: Minimum Inhibitory Concentrations S pyogenes C203. As for the experimental part: as §1

Each structure is given as a SMILES string. Values after ≈ are worked out from the molar mass of the structure shown.

Consider `CC(=O)NC[C@H]1CN(c2ccc3c(c2)CCN(c2nc4c(cc2F)c(=O)c(C(=O)O)cn4C2CC2)CC3)C(=O)O1` [Example 14, 7-{7-[5-(Acetylamino-methyl)-2-oxo-oxazolidin-3-yl]-1,2,4,5-tetrahydro-benzo[d]azepin-3-yl}-1-cyclopropyl-6-fluoro-4-oxo-1,4-dihydro-[1,8]naphthyridine-3-carboxylic Acid], for which, in assay [1], the “Inhibitory concentration in E. coli cell-free transcription/translation (TnT) assay” value was 15 µg/mL. Besides, the MIC with E. coli Tol C is 16 µg/mL (≈ 29.1 µM); with M. catarrhalis BC3534, 2 µg/mL (≈ 3.64 µM); in the assay with H. influenzae HI3542, 0.06 µg/mL (≈ 0.109 µM); in the assay on S. aureus UC-76, 0.5 µg/mL (≈ 0.91 µM); in the assay with E. faecalis MGH-2, 16 µg/mL (≈ 29.1 µM); with S pyogenes C203, 8 µg/mL (≈ 14.6 µM).

For the compound `CC(=O)NC[C@H]1CN(c2ccc3c(c2)CCCN(c2c(F)cc4c(=O)c(C(=O)O)cn5c4c2OCC5C)C3)C(=O)O1` (some centres unmarked) [Example 5, 9-{7-[5-(Acetylamino-methyl)-2-oxo-oxazolidin-3-yl]-1,3,4,5-tetrahydro-benzo[c]azepin-2-yl}-8-fluoro-3-methyl-6-oxo-2,3-dihydro-6 H-1-oxa-3a-aza-phenalene-5-carboxylic Acid], the “Inhibitory concentration in E. coli cell-free transcription/translation (TnT) assay” value in assay [1] was 22.4 µg/mL. The MIC with E. coli Tol C amounted to 8 µg/mL (≈ 14.2 µM); in the assay with M. catarrhalis BC3534, 2 µg/mL (≈ 3.54 µM); with H. influenzae HI3542, 0.06 µg/mL (≈ 0.106 µM); in the assay on S. aureus UC-76 it was 1 µg/mL (≈ 1.77 µM); in the assay on E. faecalis MGH-2, 32 µg/mL (≈ 56.7 µM); with S pyogenes C203, 8 µg/mL (≈ 14.2 µM).

As for `CC(=O)NC[C@H]1CN(c2ccc3c(c2)CCN(c2cc4c(c(C)c2F)c(=O)c(C(=O)O)cn4C2CC2)CC3)C(=O)O1` [Example 11, 7-{7-[5-(Acetylamino-methyl)-2-oxo-oxazolidin-3-yl]-1,2,4,5-tetrahydro-benzo[d]azepin-3-yl}-1-cyclopropyl-6-fluoro-5-methyl-4-oxo-1,4-dihydro-quinoline-3-carboxylic Acid], the “Inhibitory concentration in E. coli cell-free transcription/translation (TnT) assay” value in assay [1] turned out to be 10 µg/mL. The MIC with E. coli Tol C was 8 µg/mL (≈ 14.2 µM); with M. catarrhalis BC3534, 0.5 µg/mL (≈ 0.889 µM); in the assay on H. influenzae HI3542 it was 0.06 µg/mL (≈ 0.107 µM); in the assay with S. aureus UC-76 it was 0.06 µg/mL (≈ 0.107 µM); in the assay on E. faecalis MGH-2, 8 µg/mL (≈ 14.2 µM); in the assay with S pyogenes C203, 16 µg/mL (≈ 28.4 µM).

`COc1c(N2CCCc3cc(N4C[C@H](CNC(C)=O)OC4=O)ccc3C2)c(F)c(C)c2c(=O)c(C(=O)O)cn(C3CC3)c12` (stereo in doubt) [Example 2, 7-{7-[5-(Acetylamino-methyl)-2-oxo-oxazolidin-3-yl]-1,3,4,5-tetrahydro-benzo[c]azepin-2-yl}-1-cyclopropyl-6-fluoro-8-methoxy-5-methyl-4-oxo-1,4-dihydro-quinoline-3-carboxylic Acid]: the “Inhibitory concentration in E. coli cell-free transcription/translation (TnT) assay” value in assay [1] was 9.6 µg/mL. Also, the MIC in the assay on E. coli Tol C came to 16 µg/mL (≈ 27 µM); in the assay on M. catarrhalis BC3534, 8 µg/mL (≈ 13.5 µM); in the assay with H. influenzae HI3542 it was 0.06 µg/mL (≈ 0.101 µM); in the assay on S. aureus UC-76 it was 0.06 µg/mL (≈ 0.101 µM); with E. faecalis MGH-2, 8 µg/mL (≈ 13.5 µM); in the assay with S pyogenes C203, 8 µg/mL (≈ 13.5 µM).

For `CC(=O)NC[C@H]1CN(c2ccc3c(c2)CCCN(c2cc4c(cc2F)c(=O)c(C(=O)O)cn4C2CC2)C3)C(=O)O1` [Example 16, 7-{7-[5-(Acetylamino-methyl)-2-oxo-oxazolidin-3-yl]-1,3,4,5-tetrahydro-benzo[c]azepin-2-yl}-1-cyclopropyl-6-fluoro-4-oxo-1,4-dihydro-quinolne-3-carboxylic Acid], in assay [1], the “Inhibitory concentration in E. coli cell-free transcription/translation (TnT) assay” value was found to be 10 µg/mL. Further, the MIC is 64 µg/mL (≈ 117 µM) with E. coli Tol C; 16 µg/mL (≈ 29.2 µM) with M. catarrhalis BC3534; 0.125 µg/mL (≈ 0.228 µM) in the assay with H. influenzae HI3542; 8 µg/mL (≈ 14.6 µM) in the assay on S. aureus UC-76; 32 µg/mL (≈ 58.3 µM) with E. faecalis MGH-2; 4 µg/mL (≈ 7.29 µM) with S pyogenes C203.
